Reference: patent publication US10918599B2, “Serum-stable compositions and methods for light-triggered release of materials” (priority 2015, dated 2021)

Experiments:
[1] = tested on: MIA Paca-2 tumors; experiment: Survival study, phototreatment efficacy (Example 1); format: in vivo
Description: Survival study. 5×10^6 MIA Paca-2 cells (obtained from ATTC) were injected in the right flank female nude mice mice (5 weeks, Jackson Labs, #007850). […] N=5-6. Dose for Dox-PoP is 7 mg/kg for Dox and the dose of PoP was adjusted to be equivalent to that of Dox-PoP 7 mg/kg (Dox to lipid loading ratio 1:5), which is 1.225 mg/kg (1.21 μmol/kg Pyro-phospholipid). […] 21 mg/kg of sterically stabilized liposomal Dox (HSPC:CHOL:DSPE-PEG-2K=56.3:38.4:5.3% mole) was used for standard treatment of Doxil®. Free Dox 7 mg/kg was used as a free drug control. 1 h after intravenous injection, tumors that need laser treatment were all irradiated at a fluence rate of 300 W/cm^2 for 16 min 40 s (total fluence 300 J/cm^2). HPPH was diluted in PBS containing 2% ethanol and 0.2% Tween 80 and injected at a dose of 1.21 μmol/kg. Light treatment was performed 24 h post injection. Tumor size was monitored 2-3 times per week and tumor volumes were estimated by measuring three tumor dimensions using a caliper and the ellipsoid formula: Volume=π·L·W·H/6, where L, W and H are the length, width and height of the tumor, respectively. The weights of the mice were monitored every week. MIA PaCa-2 mice were sacrificed when the volume exceeded 10 times of its initial volume.
For Kaplan-Meier survival curve, each pair of group were compared by Log-rank (Mantel-Cox) test. […]

[2] = tested on: MIA Paca-2 tumors; details: mice, single dose; cited from earlier work
[3] = mice; cited from earlier work

In the case of `COc1cccc2c1C(=O)c1c(O)c3c(c(O)c1C2=O)C[C@@](O)(C(=O)CO)C[C@@H]3O[C@H]1C[C@H](N)[C@H](O)[C@H](C)O1` [Free Dox, Doxorubicin], the median survival ([1]; 7 mg/kg, single dose, no laser) is given as 19 days and the maximum tolerated dose [2] is given as 7 mg/kg.
For `C=CC1=C(C)c2cc3[nH]c(c4c5nc(cc6[nH]c(cc1n2)c(C)c6CC)C(C)=C5C(=O)C4)C(CCC(=O)OC(COC(=O)CCCCCCCCCCCCCCC)COP(=O)([O-])OCC[N+](C)(C)C)C3C` (stereo not shown) [Pyro-phospholipid], the well-tolerated intravenous dose [3] is given as ≤ 1 g/kg.
In the case of HPPH, the median survival ([1]; conventional PDT, 1.21 μmol/kg, light 24 h post injection, 300 J/cm^2) is reported as 38 days.
